ChEMBL document CHEMBL1201862, “PubChem BioAssay data set” (2004)
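Step 1: Grow cells in 96-well plates. Step 2: Expose to compound for 48 hours at 5 concentrations. Step 3: Interpolate endpoints linearly; if unreached, use highest concentration. Abbreviation: GI50, concentration required for 50% inhibition of growth.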 The source made the active and inactive calls. Cut-off read from the data, not from the text of the source: active = GI50 up to about 1.1 µM and inactive = higher.

Legend:
Assay in all cases: growth of human tumour cells (NCI), 48 h
Hs-578T = system: Hs-578T
SNB-75 = system: SNB-75
MDA-MB-435 = system: MDA-MB-435
HCT-116 = system: HCT-116
HCT-15 = system: HCT-15
ACHN = system: ACHN
A549 = system: A549
RPMI-8226 = system: RPMI-8226
MCF7 = system: MCF7
CAKI-1 = system: CAKI-1
SK-MEL-2 = system: SK-MEL-2
IGROV-1 = system: IGROV-1
MDA-N = system: MDA-N
K562 = system: K562
786-0 = system: 786-0
UO-31 = system: UO-31
A498 = system: A498
UACC-257 = system: UACC-257
NCI-H23 = system: NCI-H23
HL-60 = system: HL-60

Structure (SMILES) | GI50 (Hs-578T) | GI50 (SNB-75) | GI50 (MDA-MB-435) | GI50 (HCT-116) | GI50 (HCT-15) [µM] | GI50 (ACHN) | GI50 (A549) | GI50 (RPMI-8226) | GI50 (MCF7) | GI50 (CAKI-1) | GI50 (SK-MEL-2) | GI50 (IGROV-1) | GI50 (MDA-N) | GI50 (K562) | GI50 (786-0) | GI50 (UO-31) | GI50 (A498) | GI50 (UACC-257) | GI50 (NCI-H23) | GI50 (HL-60)
CCOP(=O)(CN1CCNCCN(CP(=O)(OCC)OCC)CC1)OCC | > 100 µM (inactive) | > 100 µM (inactive) | > 100 µM (inactive) | > 100 µM (inactive) | > 100 | > 100 µM (inactive) | > 100 µM (inactive) | > 100 µM (inactive) | > 100 µM (inactive) | > 100 µM (inactive) | > 100 µM (inactive) | > 100 µM (inactive) | > 100 µM (inactive) | > 100 µM (inactive) | > 100 µM (inactive) | > 100 µM (inactive) | > 100 µM (inactive) | > 100 µM (inactive) | > 100 µM (inactive) | –
CCOc1cc(NC(C)=O)ccc1C(=O)NN1C(=O)C(Oc2ccccc2)C1c1ccc(O)c(OC)c1 (centres undefined) | – | 44.6 µM (inactive) | 42.4 µM (inactive) | 52.4 µM (inactive) | 32.8 | 93.5 µM (inactive) | 56.5 µM (inactive) | 25.5 µM (inactive) | 39.5 µM (inactive) | 54.8 µM (inactive) | 26.9 µM (inactive) | 34 µM (inactive) | 33.6 µM (inactive) | 31.3 µM (inactive) | 43.8 µM (inactive) | 35 µM (inactive) | – | 47 µM (inactive) | 30.8 µM (inactive) | 19.8 µM (inactive)
[N-]=[N+]=NC[C@H]1OCO[C@H](CN=[N+]=[N-])[C@@H](OCCOCCCl)[C@@H]1OCCOCCCl | 80 µM (inactive) | > 100 µM (inactive) | > 100 µM (inactive) | > 100 µM (inactive) | > 100 | – | > 100 µM (inactive) | > 100 µM (inactive) | > 100 µM (inactive) | > 100 µM (inactive) | > 100 µM (inactive) | > 100 µM (inactive) | > 100 µM (inactive) | > 100 µM (inactive) | > 100 µM (inactive) | 30.1 µM (inactive) | – | > 100 µM (inactive) | > 100 µM (inactive) | > 100 µM (inactive)
Fc1nc(-c2c3ccccc3c3sc4ccccc4n23)nc(N2CCOCCOCCOCCOCC2)n1 | 37.3 µM (inactive) | 2.56 µM (inactive) | > 100 µM (inactive) | 62.4 µM (inactive) | > 100 | > 100 µM (inactive) | > 100 µM (inactive) | > 100 µM (inactive) | > 100 µM (inactive) | > 100 µM (inactive) | – | > 100 µM (inactive) | > 100 µM (inactive) | > 100 µM (inactive) | 32.8 µM (inactive) | > 100 µM (inactive) | 91.4 µM (inactive) | > 100 µM (inactive) | > 100 µM (inactive) | –
CN(C)CCNC1=CC(=O)c2nc3ccccc3c3ccnc1c23 | 4.95 µM (inactive) | 13.1 µM (inactive) | 7.52 µM (inactive) | 2.88 µM (inactive) | 3.23 | 3.05 µM (inactive) | 4.52 µM (inactive) | 5.47 µM (inactive) | 3.75 µM (inactive) | 4.02 µM (inactive) | 7.38 µM (inactive) | 2.47 µM (inactive) | 7.78 µM (inactive) | 1.19 µM (inactive) | 2.81 µM (inactive) | 3.89 µM (inactive) | – | 9.62 µM (inactive) | 5.56 µM (inactive) | 3.83 µM (inactive)
N#Cc1c(N)c(C#N)c2c(c1-c1ccc(Cl)cc1)COc1ccccc1-2 | – | – | 31.7 µM (inactive) | 12.2 µM (inactive) | 31.8 | 13.7 µM (inactive) | 14.5 µM (inactive) | 3.27 µM (inactive) | 29 µM (inactive) | – | 22 µM (inactive) | 20.4 µM (inactive) | 18.5 µM (inactive) | 16.5 µM (inactive) | 3.02 µM (inactive) | 4.04 µM (inactive) | 18.2 µM (inactive) | 44.1 µM (inactive) | 16.7 µM (inactive) | 25.4 µM (inactive)
COc1ccc2nc3ccc(OC)cc3c([S+]([O-])Cc3ccccc3)c2c1 (centres undefined) | 8.22 µM (inactive) | 15.5 µM (inactive) | 12.8 µM (inactive) | 2.45 µM (inactive) | 6.61 | 4.03 µM (inactive) | 19.1 µM (inactive) | 2.3 µM (inactive) | 2.3 µM (inactive) | 12.8 µM (inactive) | 17 µM (inactive) | 7.96 µM (inactive) | – | 8.51 µM (inactive) | 2.21 µM (inactive) | 6.87 µM (inactive) | 17 µM (inactive) | 7.8 µM (inactive) | 8.81 µM (inactive) | 3.84 µM (inactive)
N#CC(NNC(=O)c1c(Cl)c(Cl)c(Cl)c(Cl)c1-c1nc2cc(C(=O)c3ccccc3)ccc2[nH]1)c1cccc(Oc2ccccc2)c1 (centres undefined) | – | 23.7 µM (inactive) | 16.6 µM (inactive) | 29.6 µM (inactive) | 18.4 | 25.6 µM (inactive) | 30.9 µM (inactive) | 34.8 µM (inactive) | 20.3 µM (inactive) | 35.2 µM (inactive) | 20.5 µM (inactive) | 26.7 µM (inactive) | 15.4 µM (inactive) | 27.5 µM (inactive) | 22 µM (inactive) | 30.8 µM (inactive) | 20.8 µM (inactive) | 38.1 µM (inactive) | 26.4 µM (inactive) | 28.3 µM (inactive)
Cc1ccc(Nc2sc(C)cc2C#N)c([N+](=O)[O-])c1 | – | > 100 µM (inactive) | > 100 µM (inactive) | > 100 µM (inactive) | 67.3 | > 100 µM (inactive) | > 100 µM (inactive) | > 100 µM (inactive) | > 100 µM (inactive) | > 100 µM (inactive) | – | – | > 100 µM (inactive) | > 100 µM (inactive) | > 100 µM (inactive) | > 100 µM (inactive) | > 100 µM (inactive) | > 100 µM (inactive) | > 100 µM (inactive) | –
CC(=O)Nc1c(C(=N)C#N)ncn1CCO | > 100 µM (inactive) | > 100 µM (inactive) | > 100 µM (inactive) | > 100 µM (inactive) | > 100 | > 100 µM (inactive) | > 100 µM (inactive) | > 100 µM (inactive) | > 100 µM (inactive) | > 100 µM (inactive) | > 100 µM (inactive) | > 100 µM (inactive) | > 100 µM (inactive) | > 100 µM (inactive) | > 100 µM (inactive) | – | > 100 µM (inactive) | > 100 µM (inactive) | > 100 µM (inactive) | –
CC(C)/C(Cl)=N\OC(=O)Nc1ccccc1F | 25.9 µM (inactive) | 10.2 µM (inactive) | – | 8.45 µM (inactive) | 16.2 | 12.4 µM (inactive) | 18.7 µM (inactive) | 6.04 µM (inactive) | 5.64 µM (inactive) | 21.3 µM (inactive) | 18.1 µM (inactive) | 17.7 µM (inactive) | 16.6 µM (inactive) | 1.95 µM (inactive) | 16.4 µM (inactive) | 16.1 µM (inactive) | 14.9 µM (inactive) | 18.3 µM (inactive) | 17.7 µM (inactive) | 1.68 µM (inactive)
Cc1ncc(CSC(=N)N)n1Cc1ccccc1 | 95.7 µM (inactive) | – | 30.7 µM (inactive) | 42.2 µM (inactive) | > 100 | > 100 µM (inactive) | > 100 µM (inactive) | 27.5 µM (inactive) | 39.5 µM (inactive) | 84.1 µM (inactive) | > 100 µM (inactive) | > 100 µM (inactive) | 38.2 µM (inactive) | 66.8 µM (inactive) | 46 µM (inactive) | > 100 µM (inactive) | > 100 µM (inactive) | 29.7 µM (inactive) | 65.8 µM (inactive) | –
CC1(C)OCC2(CO1)CSCCCSCC1(COC(C)(C)OC1)CSCCCSC2 | – | 90.6 µM (inactive) | > 100 µM (inactive) | > 100 µM (inactive) | > 100 | – | > 100 µM (inactive) | > 100 µM (inactive) | > 10 µM (inactive) | – | – | > 100 µM (inactive) | > 100 µM (inactive) | > 100 µM (inactive) | > 100 µM (inactive) | > 100 µM (inactive) | – | > 100 µM (inactive) | > 100 µM (inactive) | > 100 µM (inactive)
CCn1c(=O)ccc2ccc(N(CCO)CCO)nc21 | > 100 µM (inactive) | > 100 µM (inactive) | > 100 µM (inactive) | > 100 µM (inactive) | > 100 | > 100 µM (inactive) | > 100 µM (inactive) | > 100 µM (inactive) | > 100 µM (inactive) | > 100 µM (inactive) | > 100 µM (inactive) | > 100 µM (inactive) | > 100 µM (inactive) | > 100 µM (inactive) | > 100 µM (inactive) | > 100 µM (inactive) | > 100 µM (inactive) | > 100 µM (inactive) | > 100 µM (inactive) | –
CCOC(=O)c1nnsc1NC(=O)Nc1ccc(Cc2ccc(NC(=O)Nc3snnc3C(=O)OCC)cc2)cc1 | 69.5 µM (inactive) | 88.5 µM (inactive) | 93.1 µM (inactive) | 30.8 µM (inactive) | > 100 | > 100 µM (inactive) | 46.1 µM (inactive) | > 100 µM (inactive) | 71.8 µM (inactive) | 41 µM (inactive) | > 100 µM (inactive) | 28.2 µM (inactive) | 69.3 µM (inactive) | > 100 µM (inactive) | 18.2 µM (inactive) | > 100 µM (inactive) | – | > 100 µM (inactive) | 43.6 µM (inactive) | –
Nc1ccc2c(c1)Cc1ccccc1-2 | > 100 µM (inactive) | 31.6 µM (inactive) | > 100 µM (inactive) | 81.5 µM (inactive) | 62.2 | 95.1 µM (inactive) | 65 µM (inactive) | – | > 100 µM (inactive) | 88.3 µM (inactive) | 99.8 µM (inactive) | 89.9 µM (inactive) | > 100 µM (inactive) | 84.1 µM (inactive) | > 100 µM (inactive) | 19.5 µM (inactive) | 49 µM (inactive) | > 100 µM (inactive) | 47.6 µM (inactive) | 36.6 µM (inactive)
